Data set [1] in a line: in vitro. The settings on record: human, liver microsomes. For orientation: Liver microsomes are a subcellular fraction often used to study metabolism.
Data set [2] is described as follows: in vitro. To be noted: human, liver microsomes. This is another data set of the same source.

On to `Cc1nc2n(c(=O)c1CCN1CCC(c3noc4cc(F)ccc34)CC1)CCCC2O` (centres undefined) [PALIPERIDONE], for which the fraction remaining – broadly, what is left of the initial amount, in per cent – at 0.5 h, 2 µM in data set [1] amounted to 100%. In addition, in data set [2], the amount remaining at 1 h, 2 µM was 100%.
In data set [1], `Cc1nc2n(c(=O)c1CCN1CCC(c3noc4cc(F)ccc34)CC1)CCCC2` [RISPERIDONE] showed a share remaining at 0.5 h, 2 µM of 100%. The same compound had a fraction remaining at 1 h, 2 µM in data set [2] of 75%.

The record behind these values is ChEMBL document CHEMBL4043141, “Synthesis and biological investigation of tetrahydropyridopyrimidinone derivatives as potential multireceptor atypical antipsychotics” (Bioorg Med Chem, 2017).
